Test results reported in patent US20200360372A1, “COMBINATION THERAPY FOR THE TREATMENT OF ACUTE MYELOID LEUKEMIA” (ASTELLAS PHARMA INC., priority 2016, published 2020).

Tested on: MV4-11 cells
Experiment: Anti-apoptosis protein expression in MV4-11 cells (western blot)
Assay type: cell-based, human
Details: 24 hours
Experimental: Anti-Apoptosis Protein Expression
MV4-11 cells were seeded on 15 cm dish and cultured overnight. The cells were treated with compound A at 0 (DMSO) or 10 nmol/L in combination with azacitidine at 0 (DMSO) or 1000 nmol/L at final concentration. The assay was performed in duplicate. After twenty-four hours, cells were harvested and lysed with lysis buffer (RIPA Buffer [Thermo Fisher Scientific], 1×Halt Phosphatase Inhibitor Cocktail [Thermo Fisher Scientific], and Protease Inhibitor Cocktail [Sigma-Aldrich]). The samples are centrifuged, and protein concentrations of supernatants were determined using the Pierce (trademark) 660 nm Protein Assay (Thermo Fisher Scientific). Aliquots of 2.0 μg protein/μL were prepared in sample buffer (10 mmol/L dithiothreitol (DTT) [Nacalai Tesque] and 1×SDS sample buffer [Wako Pure Chemical Industries, Ltd.], in lysis buffer), and then were boiled for 5 min.
The samples were separated by electrophoresis and transferred with Trans-Blot (registration symbol) Turbo transfer Pack PVDF (Bio-Rad Laboratories). After blocking with Blocking One (Nacalai Tesque) for 1 hour, each membrane was incubated with antibodies against MCL-1 (#5453, Cell Signaling Technology), BCL2L10 (#3869. Cell Signaling Technology), Survivin (#AF886, R&D Systems), cleaved PARP (#9541, Cell Signaling Technology), or Actin (A2066, Sigma-Aldrich) overnight in a cold room. After washing, the membranes were then incubated with an anti-rabbit IgG HRP-linked antibody (#7074, Cell Signaling Technology) for 1 hour at room temperature. After a final wash, signals for the each proteins were detected using a chemiluminescence reagent ECL-prime Blotting Detection Reagent (GE Healthcare) with a CCD camera (ImageQuant LAS4000. GE Healthcare).

Compound: CCc1nc(C(N)=O)c(Nc2ccc(N3CCC(N4CCN(C)CC4)CC3)c(OC)c2)nc1NC1CCOCC1 [compound A hemifumarate, 6-ethyl-3-({3-methoxy-4-[4-(4-methylpiperazin-1-yl)piperidin-1-yl]phenyl}amino)-5-(tetrahydro-2H-pyran-4-ylamino)pyrazine-2-carboxamide hemifumarate]
- expression of anti-apoptosis protein BCL2L10 (10 nmol/L): inhibits
- expression of anti-apoptosis protein MCL-1 (10 nmol/L): inhibits
- expression of anti-apoptosis protein survivin (10 nmol/L): inhibits
- PARP cleavage (compound A 10 nmol/L with or without azacitidine 1000 nmol/L): increase
